This is an account of results in patent US12606541B2, “PPARg modulators and methods of use” (Eisai R&D Management Co., Ltd., priority 2020, dated 2026).

pIC50: −log10 of the molar value. Like-named read-outs stand apart in the source and are kept apart here. Some results are limits rather than exact numbers.

One experiment concerns UM-UC-9 engineered cells. The experiment in a line: Cell proliferation / short-term viability assay, CellTiter-Glo 144 h. It counts as cell-based, human. As to conditions: read-out: CTGlo 144 h UMUC9.5, G150. The essentials:
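UM-UC-9 engineered assay-ready cells seeded at 500 cells/well in high-glucose DMEM/10% FBS, treated from dose-response plates, grown at 37° C, 5% CO2. CellTiter-Glo 2.0 luminescence read on day 7, with a day-0 pretreatment plate as T0 reference and DMSO wells as negative control.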

For the next experiment, the target named is T1, His6-TEV-PPARγ-(234-505) (Homo sapiens, UniProt P37231).
T1 construct: The His6-TEV-PPARγ-(234-505) protein for assay was expressed and purified; TEV cleavage site (N); made in house
T1 sequence (P37231 234-505): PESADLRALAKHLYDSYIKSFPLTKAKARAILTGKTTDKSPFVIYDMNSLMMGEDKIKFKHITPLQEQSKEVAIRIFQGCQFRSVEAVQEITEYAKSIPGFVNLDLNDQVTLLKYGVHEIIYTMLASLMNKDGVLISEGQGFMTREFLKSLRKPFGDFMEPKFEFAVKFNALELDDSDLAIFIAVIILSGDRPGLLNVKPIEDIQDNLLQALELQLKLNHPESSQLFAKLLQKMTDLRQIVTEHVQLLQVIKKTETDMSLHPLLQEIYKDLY
As to the kind of experiment: TR-FRET Assay to Measure Co-R Peptide Recruitment to PPARγ. The format is biochemical. To be noted: Co-R peptide (SMRT-ID2) recruitment; top final concentration 20 μM; read-out: TR-FRET i-Ag; AC50. The essentials:
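His-tagged PPARγ (or controls) was preincubated with compound for 20 minutes at room temperature, then 5 nM anti-His terbium antibody and 200 nM FITC-labeled SMRT-ID2 corepressor peptide (final) were added for a further hour. TR-FRET signal was normalized to percent response using 500 nM T0070907 and DMSO controls.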

As to `COc1cc(-c2cc(C(=O)N3CCC(C(=O)NCc4cccc(Cl)c4)C(C)C3)n[nH]2)c(Cl)cn1` (mixture of isomers) [Example 173, 1-(5-(5-chloro-2-methoxypyridin-4-yl)-1H-pyrazole-3-carbonyl)-N-(3-chlorobenzyl)-3-methylpiperidine-4-carboxamide], in the experiment with UM-UC-9 engineered cells (Homo sapiens, UM-UC-9, 144 h), the pIC50 was 5.68. In addition, the AC50 at His6-TEV-PPARγ-(234-505) was determined as 674 nM.

For `COc1cc(-c2cc(C(=O)N3[C@@H]4CC[C@H]3C[C@H](C(=O)NC3CCC(O)(C(F)(F)CO)CC3)C4)n[nH]2)c(F)cn1` (stereo partly drawn) [Example 436, (1R,3s,5S)—N-(4-(1,1-difluoro-2-hydroxyethyl)-4-hydroxycyclohexyl)-8-(5-(5-fluoro-2-methoxypyridin-4-yl)-1H-pyrazole-3-carbonyl)-8-azabicyclo[3.2.1]octane-3-carboxamide], the pIC50 in the experiment on UM-UC-9 engineered cells (Homo sapiens, UM-UC-9, 144 h) was under 5.00. The AC50 at His6-TEV-PPARγ-(234-505) was determined as 132 nM.

As to `COc1cc(-c2cc(C(=O)N3CCC(C(=O)Nc4cccc(C)n4)CC3)n[nH]2)c(Cl)cn1` [Example 251, 1-(5-(5-chloro-2-methoxypyridin-4-yl)-1H-pyrazole-3-carbonyl)-N-(6-methylpyridin-2-yl)piperidine-4-carboxamide], in the experiment with UM-UC-9 engineered cells (Homo sapiens, UM-UC-9, 144 h), the pIC50 was 5.86. Further, the AC50 at His6-TEV-PPARγ-(234-505) is 254 nM.

Take `COc1cc(-c2cc(C(=O)N3CC[C@H](C(=O)Nc4cnn5c4CC(O)CC5)CC34CC4)n[nH]2)c(F)cn1` (single isomer, unassigned) [Example 514-A]: the pIC50 in the experiment on UM-UC-9 engineered cells was 5.38. Also, the AC50 at His6-TEV-PPARγ-(234-505) is 149 nM.

Consider `COc1cc(-c2cc(C(=O)N3CCC(C(=O)NC4CCC(O)(C(F)(F)F)CC4)CC3C(F)(F)F)n[nH]2)c(F)cn1` (single isomer, unassigned) [Example 367-B], for which, in the experiment on UM-UC-9 engineered cells, the pIC50 was 8.17. The AC50 at His6-TEV-PPARγ-(234-505) was determined as 12.7 nM.

For “(S)—N—((R)-1-(3-chloropyridin-2-yl)ethyl)-4-(5-(5-fluoro-2-methoxypyridin-4-yl)-1H-pyrazole-3-carbonyl)-4-azaspiro[2.5]octane-7-carboxamide and (S)—N—((S)-1-(3-chloropyridin-2-yl)ethyl)-4-(5-(5-fluoro-2-methoxypyridin-4-yl)-1H-pyrazole-3-carbonyl)-4-azaspiro[2.5]octane-7-carboxamide [Example 360]”, in the experiment with UM-UC-9 engineered cells, the pIC50 is 8.06. In addition, the AC50 on His6-TEV-PPARγ-(234-505) is 21.8 nM.

On to `COc1cc(-c2cc(C(=O)N3[C@@H]4CC[C@H]3C[C@H](C(=O)NC3CCC5(CC3)OCC5C(F)(F)F)C4)n[nH]2)c(F)cn1` (some centres unmarked) [Example 318], for which the pIC50 in the experiment with UM-UC-9 engineered cells (Homo sapiens, UM-UC-9, 144 h) was 6.43. Moreover, the AC50 at His6-TEV-PPARγ-(234-505) worked out at 340 nM.

As for `COc1cc(-c2cc(C(=O)N3CC[C@@H](C(=O)NCc4cccc(Cl)c4)CC34CC4)n[nH]2)c(Cl)cn1` (single isomer, unassigned) [Example 245-B], in the experiment on UM-UC-9 engineered cells (Homo sapiens, UM-UC-9, 144 h), the pIC50 is 6.38. Moreover, the AC50 at His6-TEV-PPARγ-(234-505) was determined as 109 nM.

For `COc1cc(-c2cc(C(=O)N3CCC(C(=O)NCc4ncccc4Cl)CC3)n[nH]2)c(Cl)cn1` [Example 140, 1-(5-(5-chloro-2-methoxypyridin-4-yl)-1H-pyrazole-3-carbonyl)-N-((3-chloropyridin-2-yl)methyl)piperidine-4-carboxamide], the pIC50 in the experiment with UM-UC-9 engineered cells (Homo sapiens, UM-UC-9, 144 h) is 6.20. Further, on His6-TEV-PPARγ-(234-505), the AC50 was 85.4 nM.

Consider `COc1cc(-c2cc(C(=O)N3CCC(C(=O)NCc4cccc(Cl)c4F)CC3)n[nH]2)c(Cl)cn1` [Example 156, N-(3-chloro-2-fluorobenzyl)-1-(5-(5-chloro-2-methoxypyridin-4-yl)-1H-pyrazole-3-carbonyl)piperidine-4-carboxamide], for which the pIC50 in the experiment with UM-UC-9 engineered cells (Homo sapiens, UM-UC-9, 144 h) is 6.98. In addition, the AC50 at His6-TEV-PPARγ-(234-505) is 32.1 nM.

For `COc1cc(-c2cc(C(=O)N3CC[C@H](C(=O)NCC45CC(C(F)(F)F)(CO4)C5)CC34CC4)n[nH]2)c(F)cn1` [Example 365, (S)-4-(5-(5-fluoro-2-methoxypyridin-4-yl)-1H-pyrazole-3-carbonyl)-N-((4-(trifluoromethyl)-2-oxabicyclo[2.1.1]hexan-1-yl)methyl)-4-azaspiro[2.5]octane-7-carboxamide], the pIC50 with UM-UC-9 engineered cells (Homo sapiens, UM-UC-9, 144 h) is 7.66. Moreover, on His6-TEV-PPARγ-(234-505), the AC50 stood at 10 nM.

Turning to `COc1cc(-c2cc(C(=O)N3CCC(C(=O)N[C@H](C)c4cccc(F)c4)CC3)n[nH]2)c(Cl)cn1` [Example 153, (R)-1-(5-(5-chloro-2-methoxypyridin-4-yl)-1H-pyrazole-3-carbonyl)-N-(1-(3-fluorophenyl)ethyl)piperidine-4-carboxamide], the pIC50 in the experiment with UM-UC-9 engineered cells (Homo sapiens, UM-UC-9, 144 h) is 5.68. Besides, at His6-TEV-PPARγ-(234-505), the AC50 came to 621 nM.

Regarding `COc1cc(-c2cc(C(=O)N3CCC(C(=O)NCC45CCC(O)(CC4)C5)CC34CC4)n[nH]2)c(F)cn1` (single isomer, unassigned) [Example 333-A], in the experiment on UM-UC-9 engineered cells, the pIC50 is 5.02. In addition, the AC50 at His6-TEV-PPARγ-(234-505) came to 1960 nM.

For the compound `COc1cc(-c2cc(C(=O)N3CCC(C(=O)NC4CCN(c5ccnc6[nH]ncc56)C4)CC34CC4)n[nH]2)c(F)cn1` (mixture of isomers) [Example 450, (S)—N—((S)-1-(1H-pyrazolo[3,4-b]pyridin-4-yl)pyrrolidin-3-yl)-4-(5-(5-fluoro-2-methoxypyridin-4-yl)-1H-pyrazole-3-carbonyl)-4-azaspiro[2.5]octane-7-carboxamide and (S)—N—((R)-1-(1H-pyrazolo[3,4-b]pyridin-4-yl)pyrrolidin-3-yl)-4-(5-(5-fluoro-2-methoxypyridin-4-yl)-1H-pyrazole-3-carbonyl)-4-azaspiro[2.5]octane-7-carboxamide], the pIC50 in the experiment on UM-UC-9 engineered cells was 6.94. In addition, the AC50 on His6-TEV-PPARγ-(234-505) came out at 1.5 nM.

With `COc1cc(-c2cc(C(=O)N3CCC(C(=O)NCc4cccc5ccnn45)CC3)n[nH]2)c(Cl)cn1` [Example 137, 1-(5-(5-chloro-2-methoxypyridin-4-yl)-1H-pyrazole-3-carbonyl)-N-(pyrazolo[1,5-a]pyridin-7-ylmethyl)piperidine-4-carboxamide], the pIC50 in the experiment with UM-UC-9 engineered cells (Homo sapiens, UM-UC-9, 144 h) was 6.17. Also, at His6-TEV-PPARγ-(234-505), the AC50 stood at 130 nM.

`COc1cc(-c2cc(C(=O)N3CC[C@H](C(=O)Nc4cnn5ccc(C(C)O)nc45)CC34CC4)n[nH]2)c(F)cn1` (single isomer, unassigned) [Example 445-A]: in the experiment on UM-UC-9 engineered cells, the pIC50 is 7.81. In addition, the AC50 at His6-TEV-PPARγ-(234-505) was found to be 0.6 nM.

As to `COc1cc(-c2cc(C(=O)N3CCC(C(=O)NC4CCCn5c(C)nnc54)CC34CC4)n[nH]2)c(F)cn1` (mixture of isomers) [Example 492, (S)-4-(5-(5-fluoro-2-methoxypyridin-4-yl)-1H-pyrazole-3-carbonyl)-N—((S)-3-methyl-5,6,7,8-tetrahydro-[1,2,4]triazolo[4,3-a]pyridin-8-yl)-4-azaspiro[2.5]octane-7-carboxamide and (S)-4-(5-(5-fluoro-2-methoxypyridin-4-yl)-1H-pyrazole-3-carbonyl)-N—((R)-3-methyl-5,6,7,8-tetrahydro-[1,2,4]triazolo[4,3-a]pyridin-8-yl)-4-azaspiro[2.5]octane-7-carboxamide], the pIC50 with UM-UC-9 engineered cells was under 5.00. Further, the AC50 at His6-TEV-PPARγ-(234-505) turned out to be 454 nM.

Take `COc1cc(-c2cc(C(=O)N3CCC(C(=O)NCc4cccc(C(F)(F)F)n4)CC3)n[nH]2)c(Cl)cn1` [Example 129, 1-(5-(5-chloro-2-methoxypyridin-4-yl)-1H-pyrazole-3-carbonyl)-N-((6 (trifluoromethyl)pyridin-2-yl)methyl)piperidine-4-carboxamide]: in the experiment on UM-UC-9 engineered cells (Homo sapiens, UM-UC-9, 144 h), the pIC50 was 5.99. The AC50 at His6-TEV-PPARγ-(234-505) was 273 nM.

In the case of `COc1cc(-c2cc(C(=O)N3CCC(C(=O)NC4CC(=O)N(c5ccccc5)C4)CC3)n[nH]2)c(Cl)cn1` (centres unmarked) [Example 183, 1-(5-(5-chloro-2-methoxypyridin-4-yl)-1H-pyrazole-3-carbonyl)-N-(5-oxo-1-phenylpyrrolidin-3-yl)piperidine-4-carboxamide], in the experiment on UM-UC-9 engineered cells (Homo sapiens, UM-UC-9, 144 h), the pIC50 is 5.78. The AC50 on His6-TEV-PPARγ-(234-505) came to 233 nM.

`COc1cc(-c2cc(C(=O)N3CC[C@H](C(=O)NCc4nnn(C)c4C(F)(F)F)CC34CC4)[nH]n2)c(F)cn1` [Example 508, (S)-4-(3-(5-fluoro-2-methoxypyridin-4-yl)-1H-pyrazole-5-carbonyl)-N-((1-methyl-5-(trifluoromethyl)-1H-1,2,3-triazol-4-yl)methyl)-4-azaspiro[2.5]octane-7-carboxamide]: in the experiment on UM-UC-9 engineered cells (Homo sapiens, UM-UC-9, 144 h), the pIC50 was 8.07. In addition, the AC50 at His6-TEV-PPARγ-(234-505) was determined as 5.6 nM.

For the compound `COc1cc(-c2cc(C(=O)N3CC[C@H](C(=O)N[C@H]4CN(c5ccc(C)nc5)C[C@@H]4F)CC34CC4)n[nH]2)c(F)cn1` [Example 427, (S)—N-((3S,4S)-4-fluoro-1-(6-methylpyridin-3-yl)pyrrolidin-3-yl)-4-(5-(5-fluoro-2-methoxypyridin-4-yl)-1H-pyrazole-3-carbonyl)-4-azaspiro[2.5]octane-7-carboxamide], the pIC50 in the experiment with UM-UC-9 engineered cells (Homo sapiens, UM-UC-9, 144 h) was 8.38. In addition, the AC50 on His6-TEV-PPARγ-(234-505) was 10.5 nM.

On to `Cc1cc(-c2c[nH]c(C(=O)N3CCC(C(=O)N[C@H]4CC[C@@](O)(C(F)(F)F)CC4)CC34CC4)n2)c(O)cn1` (some centres unmarked) [Example 310, 4-(4-(5-hydroxy-2-methylpyridin-4-yl)-1H-imidazole-2-carbonyl)-N-((1r,4r)-4-hydroxy-4-(trifluoromethyl)cyclohexyl)-4-azaspiro[2.5]octane-7-carboxamide], for which the pIC50 in the experiment with UM-UC-9 engineered cells (Homo sapiens, UM-UC-9, 144 h) is 7.00. For the same compound, the AC50 on His6-TEV-PPARγ-(234-505) was found to be 14 nM.
